We go through nine compounds from article PMC9124243 (Cell chemical biology, 2021).

pIC50, pKi: −log10 of the molar value. Read-outs that look alike come from different tables or passages of the source. Where only a bound is given, the exact number is not on record here.

One assay addresses Mtb DnaK-DnaJ2-GrpE (Mycobacterium tuberculosis, UniProt P9WMJ9). Kind of assay: biochemical.
The target of the next assay is Mtb DnaK^FL (Mycobacterium tuberculosis, UniProt P9WMJ9). It is filed as binding. The note with it: FP competition.
Another assay deals with human Hsc70 and DnaJA2 (Homo sapiens, UniProt P11142). Put plainly: Denatured luciferase refolding by human chaperones. It is filed as biochemical.
Assay [1] addresses mycobacterial DnaK and GrpE with DnaJ2 (Mycobacterium tuberculosis, UniProt P9WMJ9). It is filed as biochemical. The note with it: excess compound.
The test system of a further assay is luciferase. Put plainly: Luciferase counter-assay. It is filed as biochemical.
Assay [2] has as its target Mtb DnaK activation by DnaJ2 and GrpE (Mycobacterium tuberculosis, UniProt P9WMJ9). It is filed as biochemical. As to conditions: for DnaJ2- and GrpE-mediated activation of DnaK: excess HCV inhibitor, DnaK 4 μM.
The test system of another assay is M. smegmatis (Msm). Put plainly: Mycobacterial growth inhibition assay. It is filed as cell-based, Mycobacterium smegmatis. The note with it: for effect on Msm growth: wild-type Msm.
For assay [3], the system named is Msm. As to conditions: below the limit of detection; ref Fay et al., 2021; cited from earlier work.
Assay [4] has as its target DnaK^SBD, residues 360-625 (Mycobacterium tuberculosis, UniProt P9WMJ9). It is filed as binding. As to conditions: FP competition.
Another assay has as its target Mtb DnaK (Mycobacterium tuberculosis, UniProt P9WMJ9). It is filed as biochemical. As to conditions: excess compound, DnaK without cofactors.
Assay [5] has as its system Msm. Kind of assay: MIC assays for antibiotic synergy with TP. It is filed as cell-based, Mycobacterium smegmatis. As to conditions: for improvement in MIC50: with 100 μM TP added.
Assay [6] concerns Msm. It is filed as cell-based, Mycobacterium smegmatis.
The next assay addresses proteinase K (Parengyodontium album, UniProt P06873). Put plainly: Hemoglobin proteolysis control for proteinase K activity. It is filed as biochemical. The note with it: 50 μM TP.
For the next assay, the target named is HCV protease (NS3/4A). The note with it: ref Grillot et al., 2011; cited from earlier work.
The mark [7] stands for this setting: kinetic analysis of ATP hydrolysis by DnaK-DnaJ2-GrpE.

Chain of Mtb DnaK-DnaJ2-GrpE (P9WMJ9 whole entry): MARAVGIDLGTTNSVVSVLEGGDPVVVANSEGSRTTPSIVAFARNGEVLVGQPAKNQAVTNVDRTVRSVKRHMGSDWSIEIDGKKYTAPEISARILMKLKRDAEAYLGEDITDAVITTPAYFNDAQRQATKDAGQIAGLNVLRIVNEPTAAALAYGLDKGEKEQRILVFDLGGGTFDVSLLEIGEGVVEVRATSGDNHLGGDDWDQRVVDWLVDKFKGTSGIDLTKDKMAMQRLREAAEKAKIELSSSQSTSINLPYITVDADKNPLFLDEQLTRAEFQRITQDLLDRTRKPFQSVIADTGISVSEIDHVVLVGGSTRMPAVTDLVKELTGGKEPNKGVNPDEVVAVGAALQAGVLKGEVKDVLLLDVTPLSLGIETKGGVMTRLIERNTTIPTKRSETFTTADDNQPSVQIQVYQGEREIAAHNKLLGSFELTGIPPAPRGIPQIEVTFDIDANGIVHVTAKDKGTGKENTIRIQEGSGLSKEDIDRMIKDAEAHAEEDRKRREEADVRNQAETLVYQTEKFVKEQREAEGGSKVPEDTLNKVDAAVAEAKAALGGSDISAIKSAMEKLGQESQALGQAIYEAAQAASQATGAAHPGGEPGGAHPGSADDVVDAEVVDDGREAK
Chain of Mtb DnaK activation by DnaJ2 and GrpE (P9WMJ9 whole entry): as above
Chain of human Hsc70 and DnaJA2 (P11142 whole entry): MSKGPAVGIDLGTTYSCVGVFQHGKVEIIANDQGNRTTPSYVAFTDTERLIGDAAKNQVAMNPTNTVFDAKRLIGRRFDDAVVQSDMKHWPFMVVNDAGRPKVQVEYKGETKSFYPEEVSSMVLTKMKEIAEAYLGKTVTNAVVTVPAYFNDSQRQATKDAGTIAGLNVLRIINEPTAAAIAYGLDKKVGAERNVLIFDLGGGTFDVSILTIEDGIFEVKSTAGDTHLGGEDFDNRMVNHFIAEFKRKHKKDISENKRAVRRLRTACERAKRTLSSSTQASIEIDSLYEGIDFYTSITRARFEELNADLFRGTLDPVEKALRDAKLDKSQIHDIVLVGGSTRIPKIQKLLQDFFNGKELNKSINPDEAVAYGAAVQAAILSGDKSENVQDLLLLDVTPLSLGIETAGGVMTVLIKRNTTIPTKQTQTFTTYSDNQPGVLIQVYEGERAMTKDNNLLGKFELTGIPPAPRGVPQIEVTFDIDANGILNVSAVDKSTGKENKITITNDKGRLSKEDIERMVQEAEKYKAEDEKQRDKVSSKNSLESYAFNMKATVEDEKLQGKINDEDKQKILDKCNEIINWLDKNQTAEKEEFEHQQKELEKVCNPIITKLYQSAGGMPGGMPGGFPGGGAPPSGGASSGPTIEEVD
Chain of Mtb DnaK (P9WMJ9 whole entry): as the sequence (P9WMJ9 whole entry) above
Chain of mycobacterial DnaK and GrpE with DnaJ2 (P9WMJ9 whole entry): as above
Chain of Mtb DnaK^FL (P9WMJ9 whole entry): as above
Chain of proteinase K (P06873 106-384): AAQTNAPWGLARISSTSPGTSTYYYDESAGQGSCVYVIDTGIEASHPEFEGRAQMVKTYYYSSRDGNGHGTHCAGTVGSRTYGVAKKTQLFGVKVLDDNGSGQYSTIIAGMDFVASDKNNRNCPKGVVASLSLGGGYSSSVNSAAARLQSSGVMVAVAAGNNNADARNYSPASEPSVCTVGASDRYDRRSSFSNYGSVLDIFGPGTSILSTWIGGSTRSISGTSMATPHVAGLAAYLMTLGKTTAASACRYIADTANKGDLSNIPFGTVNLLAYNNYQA
Chain of DnaK^SBD, residues 360-625 (P9WMJ9 360-625): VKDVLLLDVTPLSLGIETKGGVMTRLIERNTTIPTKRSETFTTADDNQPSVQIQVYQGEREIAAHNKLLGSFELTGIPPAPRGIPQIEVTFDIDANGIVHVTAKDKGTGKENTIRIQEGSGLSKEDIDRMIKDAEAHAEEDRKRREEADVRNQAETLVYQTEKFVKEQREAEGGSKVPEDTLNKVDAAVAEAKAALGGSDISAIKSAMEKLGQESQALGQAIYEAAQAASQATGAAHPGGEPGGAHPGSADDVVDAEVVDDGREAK

On to 4BB-Val-Val-Pro-Leu-OH [Compound 3], for which the “inhibition of DnaK-DnaJ2-GrpE ATPase activity in dose-response assay” value (“inhibition … in dose-response assay” below) on Mtb DnaK-DnaJ2-GrpE is “no activity”.
For 4BB-Val-Val-Pro-Leu-OMe [Compound 6], at Mtb DnaK-DnaJ2-GrpE, the “inhibition … in dose-response assay” value was “no activity”.
Turning to `CC(C)(C)NC(=O)N[C@H](C(=O)N1C[C@H]2[C@@H]([C@H]1C(=O)NC(CC1CCC1)C(=O)C(N)=O)C2(C)C)C(C)(C)C` (some centres unmarked) [BC, boceprevir], on Mtb DnaK-DnaJ2-GrpE (dose-response), the “inhibition … in dose-response assay” value was “inactive”. Besides, at Mtb DnaK^FL, the “competition with FL-NR for binding to DnaK” value is recorded as “no effect on binding of the probe”. Moreover, the “inhibition of human chaperones” value against human Hsc70 and DnaJA2 (excess compound) is reported as “does not inhibit”. Also, the “effect on refolding reactions” value in [1] was “only a slight effect”.
Turning to `CNC(=O)[C@H]1O[C@@H](n2cnc3c(NCc4cccc(I)c4)nc(Cl)nc32)[C@H](O)[C@@H]1O` [MECA, 2Cl-IB-MECA], the negative-log IC50 (pIC50) against Mtb DnaK-DnaJ2-GrpE is roughly 5.35. Further, the “competition with ATP” value on Mtb DnaK-DnaJ2-GrpE (setting [7]) is reported as “no competition with ATP”. For the same compound, the “activity against luciferase alone” value in the assay with luciferase is on record as “no activity”. Further, the “DnaJ2-mediated activation of DnaK's ATPase activity” value in [2] is “hindered”. For the same compound, in assay [2] (excess MECA, sub-stoichiometric DnaJ2), the “activation of DnaK by increasing concentrations of GrpE” value was “nearly abrogated”. The “effect on Msm growth” value with M. smegmatis (Msm) was “only TP appears to cause growth inhibition of mycobacterial cells”.
With `CO[C@H]1/C=C/O[C@@]2(C)Oc3c(C)c(O)c4c(O)c(c(/C=N/N5CCN(C)CC5)c(O)c4c3C2=O)NC(=O)/C(C)=C\C=C\[C@H](C)[C@H](O)[C@@H](C)[C@@H](O)[C@@H](C)[C@H](OC(C)=O)[C@@H]1C` [RIF, rifampicin], the “FOR value of Msm ΔdnaJ2 cells” value in the assay with Msm [3] is recorded as < 10^−10.
For `CCC[C@H](NC(=O)[C@@H]1[C@H]2CCC[C@H]2CN1C(=O)[C@@H](NC(=O)[C@@H](NC(=O)c1cnccn1)C1CCCCC1)C(C)(C)C)C(=O)C(=O)NC1CC1` [TP, Telaprevir], the “increase of the KM of DnaK” value on Mtb DnaK-DnaJ2-GrpE (setting [7]) was ~ 2 fold. Besides, the “activity against luciferase alone” value in the assay with luciferase is “no activity”. Further, in assay [2], the “DnaJ2- and GrpE-mediated activation of DnaK” value is given as “significantly disrupted”. Further, the “displacement of FL-NR from DnaK^SBD” value in [4] was “displace FL-NR”. For the same compound, at Mtb DnaK, the “effect on DnaK ATPase activity” value is given as “slightly inhibits”. The “refolding activity compared to DMSO alone” value on human Hsc70 and DnaJA2 (100 μM TP) stood at 35%. In addition, the “concentration causing growth inhibition” value in the assay on M. smegmatis (Msm) is greater than 100 µM. In the assay with M. smegmatis (Msm) (100 μM TP), the “growth of Msm ΔdnaJ1” value is given as “growth defects”. In the assay on Msm [5] (100 μM TP), the “effect on activity of rifampicin” value is on record as “does not affect the activity”. In the assay on Msm [6] (100 μM TP + 240 μM RIF, Msm), the “lowering of the FOR of RIF” value is “about 1 log10”. Besides, in the assay on Msm [6] (240 μM RIF + 100 μM TP), the “FOR of Msm for RIF with TP added” value is given as ~ 10^−8. Further, the “effect on cleavage by proteinase K” value at proteinase K is reported as “did not affect cleavage by proteinase K”. Also, the pKi on HCV protease (NS3/4A) is 7.36.
For `NC[C@H]1O[C@H](O[C@H]2[C@H](O)[C@@H](O[C@H]3O[C@H](CO)[C@@H](O)[C@H](N)[C@H]3O)[C@H](N)C[C@@H]2N)[C@H](O)[C@@H](O)[C@@H]1O` [kanamycin], the “improvement in MIC50” value with Msm [5] was ~ 2 fold.
`COc1ccc2c(O[C@@H]3C[C@H]4C(=O)N[C@]5(C(=O)NS(=O)(=O)C6CC6)C[C@H]5/C=C\CCCCN(C)C(=O)[C@@H]4C3)cc(-c3nc(C(C)C)cs3)nc2c1C` [simeprevir]: on Mtb DnaK-DnaJ2-GrpE (DnaK-DnaJ2-GrpE ATPase), the “IC50 value relative to that of TP” value is listed as ~ 8 fold. The “inhibition … in dose-response assay” value on Mtb DnaK-DnaJ2-GrpE (dose-response) was “measurable inhibition”. Besides, the “DnaJ2- and GrpE-mediated activation of DnaK” value in assay [2] is reported as “significantly disrupted”. For the same compound, the “effect on Msm growth” value in the assay on M. smegmatis (Msm) was “did not affect Msm growth”.
As to `[H]/N=C(/N)N[C@H]1[C@H](O)[C@@H](O)[C@H](O[C@@H]2O[C@@H](C)[C@](O)(C=O)[C@H]2O[C@@H]2O[C@@H](CO)[C@H](O)[C@@H](O)[C@@H]2NC)[C@@H](N/C(N)=N\[H])[C@@H]1O` [streptomycin], the “improvement in MIC50” value in the assay on Msm [5] was roughly 4 fold.
